target: T1, human CCR2 (Homo sapiens, UniProt P41597); experiment: CCR2 Membrane Binding Assay (SPA radio-ligand binding, 125I-rhMCP-1); settings: membranes from Ba/F3 cells transfected with human CCR2; 0.03 nM 125I-rhMCP-1; 4 h room temperature
T1 construct: expressed in transfected cells; host or cells: Ba/F3 cells (membrane preparation)
Experimental: The radio-ligand binding assay was done using scintillation proximity assay (SPA) technology. Briefly, membranes (1 μg per assay point) from Ba/F3 cells transfected with human CCR2, and wheat germ agglutinin-coated SPA beads (80 μg per point; Amersham, Arlington Heights, Ill.), were pre-incubated for 30 min at room temperature in CCR2 buffer (50 mM HEPES (pH=7.4), 10 mM MgCl2, 10 mM NaCl, 1 mM CaCL2, 0.1% BSA, 10 μg/ml Saponin). At this point pre-bound SPA bead, membrane complex was incubated at room temperature for 4 h with varying concentrations of punitive CCR2 antagonists (in 1% DMSO, final) and 0.03 nM ^125I-rhMCP-1 in CCR2Buffer (S.A. 2200 Ci/mmol, PerkinElmer Life and Analytical Science, Boston, Mass.; NEX332). Binding competition was measured using a 1450 Microbeta Trilux counter (Wallac, Gaithersburg, Md.). Binding constants (IC50 and slope) were calculated using GraphPad Prism software (GraphPad Software, Inc., La Jolla Calif.).

T1 sequence (P41597 whole entry): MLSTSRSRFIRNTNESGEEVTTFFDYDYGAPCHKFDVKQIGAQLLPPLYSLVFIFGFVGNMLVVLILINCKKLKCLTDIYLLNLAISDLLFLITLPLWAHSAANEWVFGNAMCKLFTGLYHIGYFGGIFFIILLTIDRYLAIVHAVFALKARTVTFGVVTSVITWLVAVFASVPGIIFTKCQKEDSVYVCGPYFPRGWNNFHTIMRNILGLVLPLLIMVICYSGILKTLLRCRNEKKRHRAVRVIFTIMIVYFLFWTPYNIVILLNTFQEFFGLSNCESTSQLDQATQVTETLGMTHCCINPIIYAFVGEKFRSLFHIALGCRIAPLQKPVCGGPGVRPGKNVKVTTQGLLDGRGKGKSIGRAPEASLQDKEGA

Row | IC50 | SMILES
1 | 8.3 nM | O=C(CNC(=O)[C@H]1[C@@H]2CN([C@H]3CC[C@@H](NC(=O)OCc4ccccc4)CC3)C[C@@H]21)Nc1cccc(C(F)(F)F)c1 [Compound 154]
2 | 3.4 nM | COc1ccc([C@H]2CC[C@@H](N3C[C@@H]4[C@H](C3)[C@H]4C(=O)NCC(=O)Nc3cccc(C(F)(F)F)c3)CC2)cn1 [Compound 132]
3 | 3.7 nM | O=C(CNC(=O)[C@H]1[C@@H]2CN([C@H]3CC[C@@H](c4ccsc4)CC3)C[C@@H]21)Nc1cccc(C(F)(F)F)c1 [Compound 97]
4 | 1.8 nM | O=C(CNC(=O)[C@H]1[C@@H]2CN([C@H]3CC[C@@H](c4ccccn4)CC3)C[C@@H]21)Nc1cccc(C(F)(F)F)c1 [Compound 81]
5 | 3.5 nM | O=C(CNC(=O)[C@H]1[C@@H]2CN(C3CCC(c4ccccc4)CC3)C[C@@H]21)Nc1cccc(C(F)(F)F)c1 (stereo partly drawn) [Compound 4]
6 | 7.4 nM | O=C(CNC(=O)[C@H]1[C@@H]2CN([C@H]3CC[C@@H](c4ccc(-c5ccccc5)cc4)CC3)C[C@@H]21)Nc1cccc(C(F)(F)F)c1 [Compound 156]
7 | 7.6 nM | O=C(CNC(=O)[C@H]1[C@@H]2CN([C@H]3CC[C@@H](c4ncccn4)CC3)C[C@@H]21)Nc1cccc(C(F)(F)F)c1 [Compound 90]
8 | 4 nM | COc1ccc([C@H]2CC[C@@H](N3C[C@@H]4[C@H](C3)[C@H]4C(=O)NCC(=O)Nc3cccc(C(F)(F)F)c3)CC2)cc1 [Compound 130]

same assay, conditions: membranes from Ba/F3 cells transfected with human CCR2; 0.03 nM 125I-rhMCP-1; class symbols

Row | IC50 | SMILES | IC50 (nM)
9 | 51 to 200 nM | CC1CCC(N2C[C@@H]3[C@H](C2)[C@H]3C(=O)NCC(=O)Nc2cccc(C(F)(F)F)c2)CC1 (stereo partly drawn) [Compound 30] | 
10 | 51 to 200 nM | Cn1ccnc1C1CCC(N2C[C@@H]3[C@H](C2)[C@H]3C(=O)NCC(=O)Nc2cccc(C(F)(F)F)c2)CC1 (stereo partly drawn) [Compound 95] | 
11 | < 50 nM | O=C([C@H]1[C@@H]2CN([C@H]3CC[C@@H](c4ccccc4)CC3)C[C@@H]21)N1CCC(c2cccc(C(F)(F)F)c2)C1 (stereo partly drawn) [Compound 71] | 
12 | 201 to 700 nM | O=C(CNC(=O)[C@H]1[C@@H]2CN([C@H]3CC[C@H](c4ccccn4)CC3)C[C@@H]21)Nc1cccc(C(F)(F)F)c1 [Compound 84] | 
13 |  | O=C(CNC(=O)[C@H]1[C@@H]2CN(C3CCCC(c4ccccc4)C3)C[C@@H]21)Nc1cccc(C(F)(F)F)c1 (stereo partly drawn) [Compound 80] | D (compounds with IC50 values between 701 nM and 110 nM are designated as D class compounds)
14 | 201 to 700 nM | COC(=O)[C@H]1CC[C@H](N2C[C@@H]3[C@H](C2)[C@H]3C(=O)NCC(=O)Nc2cccc(C(F)(F)F)c2)CC1 [Compound 58] | 
15 | 51 to 200 nM | O=C(CNC(=O)C1C2CN(C3CCOCC3)CC21)Nc1cccc(C(F)(F)F)c1 (stereo not drawn) [Compound 21] | 
16 | 51 to 200 nM | O=C(CNC(=O)[C@H]1[C@@H]2CN(C3CC(c4ccccc4)C3)C[C@@H]21)Nc1cccc(C(F)(F)F)c1 (stereo partly drawn) [Compound 49] | 
17 | 51 to 200 nM | O=C(CNC(=O)[C@H]1[C@@H]2CN(C3C[C@@H]4CC[C@H]3C4)C[C@@H]21)Nc1cccc(C(F)(F)F)c1 (stereo partly drawn) [Compound 27] | 
18 |  | O=C(CNC(=O)[C@H]1[C@@H]2CN([C@H]3CC[C@H](c4ccccc4)CC3)C[C@@H]21)Nc1cccc(C(F)(F)F)c1 [Compound 79] | D (compounds with IC50 values between 701 nM and 110 nM are designated as D class compounds)
19 | 201 to 700 nM | O=C(NCC1(c2cccc(C(F)(F)F)c2)CC1)[C@H]1[C@@H]2CN([C@H]3CC[C@@H](c4ccccc4)CC3)C[C@@H]21 [Compound 74] | 
20 | 201 to 700 nM | O=C(CNC(=O)[C@H]1[C@@H]2CN([C@H]3CC[C@H](Nc4ccc(F)c(F)c4)CC3)C[C@@H]21)Nc1cccc(C(F)(F)F)c1 [Compound 149] | 
21 |  | CC=C1CCC(N2C[C@@H]3[C@H](C2)[C@H]3C(=O)NCC(=O)Nc2cccc(C(F)(F)F)c2)CC1 (stereo partly drawn) [Compound 37] | D (compounds with IC50 values between 701 nM and 110 nM are designated as D class compounds)
22 | 201 to 700 nM | O=C1CC2CC(N3C[C@@H]4[C@H](C3)[C@H]4C(=O)NCC(=O)Nc3cccc(C(F)(F)F)c3)CC2C1 (stereo partly drawn) [Compound 44] | 
23 | < 50 nM | O=C(NCCc1cccc(C(F)(F)F)c1)[C@H]1[C@@H]2CN([C@H]3CC[C@@H](c4ccccc4)CC3)C[C@@H]21 [Compound 48] | 
24 | 201 to 700 nM | O=C([C@H]1[C@@H]2CN([C@H]3CC[C@@H](c4ccccc4)CC3)C[C@@H]21)N1CCC(Nc2ncc(C(F)(F)F)cn2)C1 (stereo partly drawn) [Compound 113] | 
25 | 201 to 700 nM | CC(C)(C)OC(=O)[C@H]1CC[C@@H](N2C[C@@H]3[C@H](C2)[C@H]3C(=O)NCC(=O)Nc2cccc(C(F)(F)F)c2)CC1 [Compound 124] | 
26 | 201 to 700 nM | O=C(CNC(=O)[C@H]1[C@@H]2CN([C@H]3CC[C@H](c4ccc(OCc5ccccc5)cc4)CC3)C[C@@H]21)Nc1cccc(C(F)(F)F)c1 [Compound 161] | 
27 | 51 to 200 nM | O=C(NCc1cccc(C(F)(F)F)c1)[C@H]1[C@@H]2CN([C@H]3CC[C@@H](c4ccccc4)CC3)C[C@@H]21 [Compound 42] | 
28 | 201 to 700 nM | CC1CCCC(N2C[C@@H]3[C@H](C2)[C@H]3C(=O)NCC(=O)Nc2cccc(C(F)(F)F)c2)C1 (stereo partly drawn) [Compound 32] | 
29 | 201 to 700 nM | O=C(CNC(=O)[C@H]1[C@@H]2CN([C@H]3CC[C@H](c4cccs4)CC3)C[C@@H]21)Nc1cccc(C(F)(F)F)c1 [Compound 100] | 
30 | 201 to 700 nM | CN(C(=O)[C@H]1[C@@H]2CN([C@H]3CC[C@@H](c4ccccc4)CC3)C[C@@H]21)[C@H]1CCN(c2ncc(C(F)(F)F)cn2)C1 [Compound 129] | 

Row | IC50 | SMILES | IC50 (nM)
31 | < 50 nM | O=C(CNC(=O)[C@H]1[C@@H]2CN([C@H]3CC[C@@H](c4cnn(Cc5ccccc5)c4)CC3)C[C@@H]21)Nc1cccc(C(F)(F)F)c1 [Compound 157] | 
32 | 51 to 200 nM | O=C([C@H]1[C@@H]2CN([C@H]3CC[C@@H](c4ccccc4)CC3)C[C@@H]21)N1CC[C@H](Nc2nccc(C(F)(F)F)n2)C1 [Compound 111] | 
33 | 51 to 200 nM | N#Cc1cccc(C2CCN(C(=O)[C@H]3[C@@H]4CN([C@H]5CC[C@@H](c6ccccc6)CC5)C[C@@H]43)C2)c1 (stereo partly drawn) [Compound 40] | 
34 | 201 to 700 nM | O=C(CNC(=O)[C@H]1[C@@H]2CN(C3CCC(O)CC3)C[C@@H]21)Nc1cccc(C(F)(F)F)c1 (stereo partly drawn) [Compound 34] | 
35 | 51 to 200 nM | O=C(NC1Cc2ccc(Br)cc2C1)[C@H]1[C@@H]2CN([C@H]3CC[C@@H](c4ccccc4)CC3)C[C@@H]21 (stereo partly drawn) [Compound 68] | 
36 | 201 to 700 nM | O=C(CNC(=O)[C@H]1[C@@H]2CN([C@H]3CC[C@H](c4ccncc4)CC3)C[C@@H]21)Nc1cccc(C(F)(F)F)c1 [Compound 85] | 
37 | 51 to 200 nM | O=C(CNC(=O)[C@H]1[C@@H]2CN(C3CCCOC3)C[C@@H]21)Nc1cccc(C(F)(F)F)c1 (stereo partly drawn) [Compound 22] | 
38 | 51 to 200 nM | COc1ccc(CC2CCCC(N3C[C@@H]4[C@H](C3)[C@H]4C(=O)NCC(=O)Nc3cccc(C(F)(F)F)c3)C2)cc1 (stereo partly drawn) [Compound 144] | 
39 |  | O=C([C@H]1[C@@H]2CN([C@H]3CC[C@@H](c4ccccc4)CC3)C[C@@H]21)N1CC(Oc2ccccc2)C1 [Compound 25] | D (compounds with IC50 values between 701 nM and 110 nM are designated as D class compounds)
40 |  | O=C(CNC(=O)[C@H]1[C@@H]2CN([C@H]3CC[C@@H](NS(=O)(=O)C4CC4)CC3)C[C@@H]21)Nc1cccc(C(F)(F)F)c1 [Compound 142] | D (compounds with IC50 values between 701 nM and 110 nM are designated as D class compounds)
41 | 51 to 200 nM | O=C(NCCc1cc(F)cc(C(F)(F)F)c1)[C@H]1[C@@H]2CN([C@H]3CC[C@@H](c4ccccc4)CC3)C[C@@H]21 [Compound 67] | 
42 | 51 to 200 nM | O=C(CNC(=O)[C@H]1[C@@H]2CN(C3CCCC3)C[C@@H]21)Nc1cccc(C(F)(F)F)c1 [Compound 11] | 
43 |  | O=C(CNC(=O)[C@H]1[C@@H]2CN(C3CCSCC3)C[C@@H]21)Nc1cccc(C(F)(F)F)c1 [Compound 35] | D (compounds with IC50 values between 701 nM and 110 nM are designated as D class compounds)
44 | 201 to 700 nM | O=C(CNC(=O)[C@H]1[C@@H]2CN(C3CC3)C[C@@H]21)Nc1cccc(C(F)(F)F)c1 [Compound 78] | 
45 | 51 to 200 nM | O=C(CNC(=O)[C@H]1[C@@H]2CN(C3CCC(O)(c4nccs4)CC3)C[C@@H]21)Nc1cccc(C(F)(F)F)c1 (stereo partly drawn) [Compound 122] | 
46 | 201 to 700 nM | O=C(CNC(=O)[C@H]1[C@@H]2CN(C3CC(COCc4ccccc4)C3)C[C@@H]21)Nc1cccc(C(F)(F)F)c1 (stereo partly drawn) [Compound 116] | 
47 | 51 to 200 nM | O=C(CNC(=O)[C@H]1[C@@H]2CN([C@H]3CC[C@H](c4ccsc4)CC3)C[C@@H]21)Nc1cccc(C(F)(F)F)c1 [Compound 99] | 
48 | 201 to 700 nM | CC(C)N1C[C@@H]2C(C(=O)NCCc3cccc(C(F)(F)F)c3)[C@@H]2C1 (stereo partly drawn) [Compound 18] | 
49 | < 50 nM | O=C(CNC(=O)[C@H]1[C@@H]2CN([C@H]3CC[C@H](c4ccc(O)cc4)CC3)C[C@@H]21)Nc1cccc(C(F)(F)F)c1 [Compound 115] | 
50 | < 50 nM | O=C(CNC(=O)[C@H]1[C@@H]2CN([C@H]3CC[C@@H](Nc4ccc(F)c(F)c4)CC3)C[C@@H]21)Nc1cccc(C(F)(F)F)c1 [Compound 148] | 
51 | 201 to 700 nM | O=C([C@H]1[C@@H]2CN([C@H]3CC[C@@H](c4ccccc4)CC3)C[C@@H]21)N1CC(c2cccc(C(F)(F)F)c2)C1 [Compound 59] | 

— patent US20140005165A1, “SUBSTITUTED 3-AZABICYCLO[3.1.0]HEXANE DERIVATIVES USEFUL AS CCR2 ANTAGONISTS” (priority 2011, published 2014)
